Data: PubChem BioAssay (NCI)
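Assay format: 96-well plates, 48-hour exposure. TGI denotes the concentration required for complete inhibition of growth.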

Tests used:
Assay in all cases: NCI tumour cell line growth inhibition, 48 h
SW-620 colon = system: SW-620 colon
SN12C renal = system: SN12C renal
HCT-15 colon = system: HCT-15 colon
SNB-78 CNS = system: SNB-78 CNS
EKVX NSCLC = system: EKVX NSCLC
DLD-1 colon = system: DLD-1 colon
LOX IMVI melanoma = system: LOX IMVI melanoma
ACHN renal = system: ACHN renal
COLO 205 colon = system: COLO 205 colon
OVCAR-3 ovarian = system: OVCAR-3 ovarian
NCI-H460 lung = system: NCI-H460 lung
NCI-H23 lung = system: NCI-H23 lung
HCT-116 colon = system: HCT-116 colon
SNB-75 CNS = system: SNB-75 CNS
CCRF-CEM leukemia = system: CCRF-CEM leukemia
TK-10 renal = system: TK-10 renal
SF-539 CNS = system: SF-539 CNS
CAKI-1 renal = system: CAKI-1 renal
HL-60(TB) leukemia = system: HL-60(TB) leukemia
SR leukemia = system: SR leukemia
UACC-257 melanoma = system: UACC-257 melanoma
HCC-2998 colon = system: HCC-2998 colon
KM12 colon = system: KM12 colon
SF-295 CNS = system: SF-295 CNS
UACC-62 melanoma = system: UACC-62 melanoma
SK-MEL-5 melanoma = system: SK-MEL-5 melanoma
SK-MEL-28 melanoma = system: SK-MEL-28 melanoma
XF 498 CNS = system: XF 498 CNS
NCI-H226 lung = system: NCI-H226 lung
RPMI-8226 leukemia = system: RPMI-8226 leukemia
KM20L2 colon = system: KM20L2 colon
HOP-92 NSCLC = system: HOP-92 NSCLC
786-0 renal = system: 786-0 renal
M14 melanoma = system: M14 melanoma
DMS 273 small cell lung = system: DMS 273 small cell lung
OVCAR-5 ovarian = system: OVCAR-5 ovarian
A549 NSCLC = system: A549 NSCLC
NCI-H522 lung = system: NCI-H522 lung
OVCAR-8 ovarian = system: OVCAR-8 ovarian
SNB-19 CNS = system: SNB-19 CNS
A498 renal = system: A498 renal
DMS 114 small cell lung = system: DMS 114 small cell lung
HOP-62 NSCLC = system: HOP-62 NSCLC
SK-MEL-2 melanoma = system: SK-MEL-2 melanoma
MOLT-4 leukemia = system: MOLT-4 leukemia
U251 CNS = system: U251 CNS
SF-268 CNS = system: SF-268 CNS
LXFL 529 NSCLC = system: LXFL 529 NSCLC
RXF-631 renal = system: RXF-631 renal
M19-MEL melanoma = system: M19-MEL melanoma
K-562 leukemia = system: K-562 leukemia
HT29 colon = system: HT29 colon
SK-OV-3 ovarian = system: SK-OV-3 ovarian
OVCAR-4 ovarian = system: OVCAR-4 ovarian
HOP-18 NSCLC = system: HOP-18 NSCLC
RXF 393 renal = system: RXF 393 renal
IGROV1 ovarian = system: IGROV1 ovarian
MALME-3M melanoma = system: MALME-3M melanoma
UO-31 renal = system: UO-31 renal

COc1ccc2c(c1)CCc1cnn(C3OC(COC(C)=O)C(OC(C)=O)C(OC(C)=O)C3OC(C)=O)c1-2 (centres undefined)
TGI (SW-620 colon): 36.2 µM
TGI (SN12C renal): > 100 µM
TGI (HCT-15 colon): > 100 µM
TGI (SNB-78 CNS): > 100 µM
TGI (EKVX NSCLC): > 100 µM
TGI (DLD-1 colon): > 100 µM
TGI (LOX IMVI melanoma): > 100 µM
TGI (ACHN renal): > 100 µM
TGI (COLO 205 colon): > 100 µM
TGI (OVCAR-3 ovarian): 56.7 µM
TGI (NCI-H460 lung): > 100 µM
TGI (NCI-H23 lung): > 100 µM
TGI (HCT-116 colon): > 100 µM
TGI (SNB-75 CNS): > 100 µM
TGI (CCRF-CEM leukemia): 60.5 µM
TGI (TK-10 renal): > 100 µM
TGI (SF-539 CNS): > 100 µM
TGI (CAKI-1 renal): > 100 µM
TGI (HL-60(TB) leukemia): > 100 µM
TGI (SR leukemia): 70.5 µM
TGI (UACC-257 melanoma): > 100 µM
TGI (HCC-2998 colon): > 100 µM
TGI (KM12 colon): > 100 µM
TGI (SF-295 CNS): > 100 µM
TGI (UACC-62 melanoma): > 100 µM
TGI (SK-MEL-5 melanoma): > 100 µM
TGI (SK-MEL-28 melanoma): > 100 µM
TGI (XF 498 CNS): 52.1 µM
TGI (NCI-H226 lung): > 100 µM
TGI (RPMI-8226 leukemia): 53.8 µM
TGI (KM20L2 colon): 51.8 µM
TGI (HOP-92 NSCLC): 51.5 µM
TGI (786-0 renal): 75.6 µM
TGI (M14 melanoma): > 100 µM
TGI (DMS 273 small cell lung): > 100 µM
TGI (OVCAR-5 ovarian): > 100 µM
TGI (A549 NSCLC): > 100 µM
TGI (NCI-H522 lung): 31.7 µM
TGI (OVCAR-8 ovarian): > 100 µM
TGI (SNB-19 CNS): > 100 µM
TGI (A498 renal): > 100 µM
TGI (DMS 114 small cell lung): > 100 µM
TGI (HOP-62 NSCLC): > 100 µM
TGI (SK-MEL-2 melanoma): > 100 µM
TGI (MOLT-4 leukemia): 74.3 µM
TGI (U251 CNS): 65.6 µM
TGI (SF-268 CNS): > 100 µM
TGI (LXFL 529 NSCLC): 41.4 µM
TGI (RXF-631 renal): > 100 µM
TGI (M19-MEL melanoma): > 100 µM
TGI (K-562 leukemia): > 100 µM
TGI (HT29 colon): > 100 µM

Cc1cc(C)nc(NS(=O)(=O)c2ccc(NC(=O)c3cccc4c(Nc5ccc(S(=O)(=O)Nc6nc(C)cc(C)n6)cc5)c5ccccc5nc34)cc2)n1
TGI (SK-OV-3 ovarian): 57.2 µM
TGI (SW-620 colon): 65.3 µM
TGI (SN12C renal): 41.1 µM
TGI (HCT-15 colon): 49 µM
TGI (OVCAR-4 ovarian): 64.1 µM
TGI (SNB-78 CNS): > 100 µM
TGI (EKVX NSCLC): 55.1 µM
TGI (DLD-1 colon): 54.2 µM
TGI (HOP-18 NSCLC): 29.7 µM
TGI (LOX IMVI melanoma): 38.7 µM
TGI (ACHN renal): 49.8 µM
TGI (COLO 205 colon): 45.4 µM
TGI (OVCAR-3 ovarian): 39.8 µM
TGI (NCI-H460 lung): > 100 µM
TGI (NCI-H23 lung): 57.3 µM
TGI (HCT-116 colon): 26 µM
TGI (SNB-75 CNS): 35.5 µM
TGI (CCRF-CEM leukemia): 69.6 µM
TGI (RXF 393 renal): 31.5 µM
TGI (TK-10 renal): 73.3 µM
TGI (SF-539 CNS): 32.6 µM
TGI (CAKI-1 renal): 51.6 µM
TGI (HL-60(TB) leukemia): 48.9 µM
TGI (UACC-257 melanoma): 43.2 µM
TGI (KM12 colon): 44.3 µM
TGI (SF-295 CNS): 51.5 µM
TGI (UACC-62 melanoma): 57.3 µM
TGI (IGROV1 ovarian): > 100 µM
TGI (SK-MEL-5 melanoma): 36.6 µM
TGI (SK-MEL-28 melanoma): 46 µM
TGI (XF 498 CNS): 79.7 µM
TGI (RPMI-8226 leukemia): 61.8 µM
TGI (KM20L2 colon): 42.9 µM
TGI (HOP-92 NSCLC): 45.1 µM
TGI (786-0 renal): 46.8 µM
TGI (M14 melanoma): 54.9 µM
TGI (DMS 273 small cell lung): 38.9 µM
TGI (A549 NSCLC): 68.2 µM
TGI (NCI-H522 lung): 32.8 µM
TGI (OVCAR-8 ovarian): 68.1 µM
TGI (SNB-19 CNS): 82.4 µM
TGI (A498 renal): 35.9 µM
TGI (HOP-62 NSCLC): 66 µM
TGI (SK-MEL-2 melanoma): 70.4 µM
TGI (MOLT-4 leukemia): 62.8 µM
TGI (U251 CNS): 38.6 µM
TGI (MALME-3M melanoma): 56.7 µM
TGI (SF-268 CNS): 93 µM
TGI (LXFL 529 NSCLC): 70.3 µM
TGI (RXF-631 renal): 42.6 µM
TGI (UO-31 renal): 37.3 µM
TGI (M19-MEL melanoma): > 100 µM
TGI (K-562 leukemia): 61.2 µM
TGI (HT29 colon): 43.9 µM

Cc1c2ccccc2c(CO)c2cc(F)c3ccccc3c12
TGI (SK-OV-3 ovarian): 73.6 µM
TGI (SW-620 colon): > 100 µM
TGI (SN12C renal): 33.3 µM
TGI (OVCAR-4 ovarian): 98.2 µM
TGI (SNB-78 CNS): 69.1 µM
TGI (EKVX NSCLC): > 100 µM
TGI (DLD-1 colon): 43.6 µM
TGI (HOP-18 NSCLC): 89.9 µM
TGI (LOX IMVI melanoma): 36.1 µM
TGI (ACHN renal): 58.2 µM
TGI (COLO 205 colon): 32.2 µM
TGI (OVCAR-3 ovarian): 61.3 µM
TGI (NCI-H23 lung): > 100 µM
TGI (HCT-116 colon): 40.3 µM
TGI (SNB-75 CNS): > 100 µM
TGI (CCRF-CEM leukemia): 68 µM
TGI (RXF 393 renal): 61.5 µM
TGI (TK-10 renal): 71.8 µM
TGI (SF-539 CNS): > 100 µM
TGI (CAKI-1 renal): 79.4 µM
TGI (HL-60(TB) leukemia): 61 µM
TGI (SR leukemia): 70.7 µM
TGI (UACC-257 melanoma): > 100 µM
TGI (HCC-2998 colon): > 100 µM
TGI (KM12 colon): 56.3 µM
TGI (SF-295 CNS): 57.8 µM
TGI (UACC-62 melanoma): > 100 µM
TGI (IGROV1 ovarian): 63.7 µM
TGI (SK-MEL-5 melanoma): > 100 µM
TGI (SK-MEL-28 melanoma): > 100 µM
TGI (XF 498 CNS): 51 µM
TGI (NCI-H226 lung): > 100 µM
TGI (KM20L2 colon): 48.6 µM
TGI (HOP-92 NSCLC): 78.4 µM
TGI (DMS 273 small cell lung): 32 µM
TGI (OVCAR-5 ovarian): 80.6 µM
TGI (A549 NSCLC): > 100 µM
TGI (NCI-H522 lung): 26.3 µM
TGI (OVCAR-8 ovarian): 41.4 µM
TGI (SNB-19 CNS): > 100 µM
TGI (A498 renal): > 100 µM
TGI (DMS 114 small cell lung): 34.2 µM
TGI (HOP-62 NSCLC): 92.9 µM
TGI (SK-MEL-2 melanoma): 36.7 µM
TGI (MOLT-4 leukemia): 39.6 µM
TGI (U251 CNS): 50.3 µM
TGI (MALME-3M melanoma): > 100 µM
TGI (SF-268 CNS): 71.2 µM
TGI (RXF-631 renal): 30.7 µM
TGI (UO-31 renal): > 100 µM
TGI (M19-MEL melanoma): > 100 µM
TGI (K-562 leukemia): > 100 µM
TGI (HT29 colon): 49 µM
